Results published in patent US11738065B2, “Polypeptides and analogues thereof for use in the treatment of diabetes and bone disorders” (UNIVERSITY OF ULSTER, priority 2015, dated 2023).
Where no end group is shown, it is not given here. [ ]: non-standard residue; d: D form.

Legend:
SaOS-2 cells [1] = experiment: cAMP production in SaOS-2 cells; assay type: cell-based, Human; details: 60 min, 200 μM IBMX
Method: SaOS-2 cells were seeded at a density of 5e4 cells in 96-well plates. Cells were cultured in α-MEM 1× media supplemented with 10% FBS for 24 hours in order to allow attachment to the plate. Before the experiment, cells were washed with Hank's Balanced Salt Solution (HBSS). Cells were then incubated with various concentrations (1e-12-1e-6 M) of test peptides of the invention supplemented with 200 μM of 3-isobutyl-1-methylxanthine (IBMX). Plates were then incubated for 60 minutes at 37° C. Following this step, cells were washed 3 times with 150 μl PBS. Cell lysis was performed with 150 μl cell lysis buffer (R&D Systems) and a freeze (−20° C.)-thaw (37° C.) cycle was carried out. The contents were then collected into 500 μl tubes and centrifuged at 600 rpm for 10 min (4° C.). The supernatant was collected and cAMP was measured using a cAMP assay kit (R&D Systems) according to the manufacturer's instructions. The concentration of cAMP was calculated from a standard curve of cAMP ranging from 0 to 240 pmol/ml.

SaOS-2 cells [2] = experiment: TGF-β release from SaOS-2 cells; assay type: cell-based, Human; details: 1e-12-1e-6 M, 8 hours
Method: Human osteoblast SaOS-2 cells [sourced from The European Collection of Cell Cultures (ECACC)] were seeded at a density of 2e5 cells/well in 24 well plates [Nunc, Roskilde, Denmark]. The cells were incubated in media [Life Technologies] supplemented with 10% FBS. Before adding test peptides of the invention, the media were changed with fresh 0.1% FBS-containing media 24 h previously. On the day of experimentation, media were removed and 1 ml of respective peptides of the invention GIP/Xenin, GIP/Xenin Asp and GIP/Xenin Glu [(DAla2)GIP/xenin-8-Gln, (DAla2)GIP/xenin-8-Gln(L-Asp), and (DAla2)GIP/xenin-8-Gln(L-Glu) respectively] (1e-12-1e-6 M) were added to each well. The plates were then incubated at 37° C. for a period of 8 hours. After incubation, media was collected and TGF-β released in the supernatant measured using a TGF-β Immunoassay kit (Quantikine, R&D Systems) according to the manufacturer's instructions. The concentration of TGF-β was calculated from a standard curve of recombinant human TGF-β ranging from […].

SaOS-2 cells [3] = experiment: IGF-1 release from SaOS-2 cells; assay type: cell-based, Human; details: 1e-12-1e-6 M, 8 hours
Method: SaOS-2 cells were seeded at a density of 2e5 cells/well in 6-well plates in 10% FBS containing media. Media were changed 24 hours prior to experimentation with 0.1% FBS. Media was then removed, followed by an addition of 1 ml of test peptides of the invention (1e-12-1e-6 M). Plates were incubated at 37° C. for 8 hours. After incubation, media was collected and IGF-1 released in the supernatant was measured using IGF-1 Immunoassay kit (Quantikine, R&D Systems) according to the manufacturer's instructions. The concentration of IGF-1 in the samples was determined from a standard curve of recombinant human IGF-1 in the range of 0-60 ng/ml.

high fat fed mice [4] = experiment: 42 day once daily study in high fat fed mice (body weight, composition, food intake, non-fasting glucose); assay type: in vivo; details: 25 nmol/kg once daily, 42 days
From the text: FIG. 10 illustrates body weight as measured for 3 days before and 42 days during (indicated by black horizontal bar) once daily treatment with saline vehicle (0.9% w/v NaCl), GIP/Xenin hybrid, GIP/Xenin hybrid Asp and GIP/Xenin hybrid Glu (each peptide at 25 nmol/kg bw). Values represent means±SEM for 5 mice;
FIG. 11A-11B illustrate (FIG. 11A) % Fat mass and (FIG. 11B) % Lean mass as measured by DEXA scanning in high fat fed mice following 42 days treatment with GIP/Xenin hybrid, GIP/Xenin hybrid Asp and GIP/Xenin hybrid Glu. Values represent means±SEM for 3-5 mice;
FIG. 12 illustrates cumulative energy intake as measured for 3 days before and 42 days (indicated by black horizontal bar) during once daily treatment with saline vehicle (0.9% w/v NaCl), GIP/Xenin hybrid, GIP/Xenin hybrid Asp and GIP/Xenin hybrid Glu (each peptide at 25 nmol/kg bw). Values represent means±SEM for 3-5 mice. ^ΔP<0.05, ^ΔΔP<0.01, ^ΔΔΔP<0.001 compared to saline control;
FIG. 13 illustrates non fasting blood glucose as measured for 3 days before and 42 days during (indicated by black horizontal bar) once daily treatment with saline vehicle (0.9% w/v NaCl), GIP/Xenin hybrid, GIP/Xenin hybrid Asp and GIP/Xenin hybrid Glu (each peptide at 25 nmol/kg bw). Values represent means±SEM for 5 mice; […]

high fat fed mice [5] = experiment: Glucose tolerance test after 42 days treatment; assay type: in vivo
Method: FIG. 14A-14B illustrate tests conducted after once daily treatment with saline, GIP/Xenin hybrid, GIP/Xenin hybrid Asp and GIP/Xenin hybrid Glu for 42 days. (FIG. 14A) Blood glucose before and after i.p injection of glucose (18 mmol/kg bw) alone in 18 hr fasted mice. (FIG. 14B) AUC values for blood glucose for 0-105 min are shown in insets. Values represent means±SEM for 6-7 mice. *P<0.05, **P<0.01 and ***P<0.001 compared to saline control;

high fat fed mice [6] = experiment: Insulin tolerance test after 42 days treatment; assay type: in vivo; details: insulin 25 U/kg i.p., non-fasted
Method: FIG. 15A-15B illustrate Blood glucose (FIG. 15A) and blood glucose AUC (FIG. 15B) values for 0-105 min (shown in inset) following 42 days treatment with saline, GIP/Xenin hybrid, GIP/Xenin hybrid Asp and GIP/Xenin hybrid Glu (each peptide at 25 nmol/kg bw), and subsequent insulin (25 U/kg bw) injection intraperitoneally (at t=0) in non-fasted mice. Values represent means±SEM for 5 mice. *P<0.05, **P<0.01 and ***P<0.001 compared to saline control;

high fat fed mice [7] = experiment: DEXA bone mineral density and content after 42 days treatment; assay type: in vivo; details: P<0.05 and P<0.01 respectively
Method: The DEXA (dual energy X-ray absorptiometry) analysis [Lunar PIXImus, Inside Outside Sales] was performed on unconscious mice and the whole body was scanned. Various parameters like bone mineral density (BMD), bone mineral content (BMC), lean mass, fat mass and percentage of total fat were measured according to the manufacturer's instructions.

high fat fed mice [8] = experiment: Three-point bending of bone after 42 days treatment; assay type: in vivo
Method: Femur and tibia bones were extracted at the end of the experiment using a scalpel and fine scissors, soft tissue removed and stored in 70% ethanol. Three-point bending strength was measured with a constant span length of 10 mm. Femurs were positioned horizontally with the anterior surface facing upwards, centered on the support and the pressing force was applied vertically to the midshaft of the bone. Each bone was tested with a loading speed of 2 mm/min until failure with a 90 N load cell. The load-time curve obtained was converted into a load-displacement curve by the MTS testSuite TW software (MTS, Créteil, France). Ultimate load and ultimate displacement were respectively defined as the maximum load and maximum displacement recorded before break-down of the bone. Stiffness was calculated as the slope of the elastic deformation of the bone. The total absorbed energy was defined as the total area under the load-displacement curve and represents the total energy absorbed by the midshaft femur. The yield was defined as the load necessary to initiate the transformation from elastic to plastic deformation. The post-yield energy was defined as the area under the load-displacement curve from yield until failure and represents the energy absorbed by bone during plastic deformation.

high fat fed mice [9] = experiment: Microcomputed tomography of tibia trabecular and cortical bone after 42 days treatment; assay type: in vivo; details: microCT
Method: The tibia was used to investigate trabecular and cortical bone microstructural morphology by microCT analysis with a Skyscan 1172 microtomograph (Bruker, Kontich, Belgium) equipped with an X-ray tube working at 69 kV/100 μA. The pixel size was fixed at 8.3 μm, the rotation step at 0.25° and exposure was performed with a 0.5-mm aluminum filter. Bone mass and morphometry parameters were calculated with the CTan software (release 1.11.4.2, Bruker). The trabecular parameters were assessed at the volume of interest (VOI), located 1 mm below the growth plate and spanning 2.5 mm in height. Trabecular bone volume (BV/TV, in %), trabecular number (Tb.N, in 1/mm) and trabecular separation (Tb.Sp, in μm) were measured according to guidelines and nomenclature proposed by the American Society for Bone and Mineral Research. Cortical parameters were determined at the midshaft tibia with a lab-made routine using ImageJ. […] (Ma.Ar), cortical area (Ct.Ar), total area (Tt.Ar), cortical thickness (Ct.Th, in μm) and cross-sectional moment of inertia (J in mm4) were also measured according to guidelines and nomenclature on bone histomorphometry proposed by the American Society for Bone and Mineral Research.

| Substance | Lowest effective concentration for cAMP production (SaOS-2 cells [1]) [nM] | TGF-β release from SaOS-2 cells (SaOS-2 cells [2]) | IGF-1 release from SaOS-2 cells (SaOS-2 cells [3]) | Body weight, fat and lean mass, food intake (high fat fed mice [4]) | Blood glucose concentrations after glucose challenge (high fat fed mice [5]; glucose 18 mmol/kg) | Hypoglycaemic response to exogenous insulin (high fat fed mice [6]) | Tibia bone mineral density (high fat fed mice [7]) | Bone ultimate load and stiffness (high fat fed mice [8]) | Cortical bone area, thickness and moment of inertia / structural properties of cortical bone (high fat fed mice [9]) | Blood glucose overall AUC after glucose challenge (high fat fed mice [5]; 0-105 min, glucose 18 mmol/kg) | Blood glucose at 30, 60 and 105 min after glucose challenge (high fat fed mice [5]; glucose 18 mmol/kg i.p.) |
| --- | --- | --- | --- | --- | --- | --- | --- | --- | --- | --- | --- |
| TYR-(d)ALA-GLU-GLY-THR-PHE-ILE-SER-ASP-TYR-SER-ILE-ALA-MET-HIS-PRO-GLN-GLN-PRO-TRP-ILE-LEU-GLY-ALA-ALA-GLU-GLU-GLU-GLU-GLU-GLU (Y[dA]EGTFISDYSIAMHPQQPWILGAAEEEEEE; also: Gln side-chain L-Glu modification; listed as Homo sapiens) [GIP/Xenin Glu] | 1000 | dose-dependently stimulated | dose-dependently stimulated | no significant change | also reduced blood glucose concentrations, but not as effectively as GIP/Xenin Asp | more pronounced hypoglycaemic response | reduced | negative effects (P<0.05 to P<0.001) | reduced |  |  |
| TYR-(d)ALA-GLU-GLY-THR-PHE-ILE-SER-ASP-TYR-SER-ILE-ALA-MET-HIS-PRO-GLN-GLN-PRO-TRP-ILE-LEU-GLY-ALA-ALA-ASP-ASP-ASP-ASP-ASP-ASP (Y[dA]EGTFISDYSIAMHPQQPWILGAADDDDDD; also: Gln side-chain L-Asp modification; listed as Homo sapiens) [GIP/Xenin Asp] | 10 | dose-dependently stimulated | dose-dependently stimulated | no significant change |  |  | reduced |  |  | significant (P<0.05) reduction in overall AUC measures | significantly (P<0.01 to P<0.001) |
